# Patent EP0415731B1, “Novel entities for cancer therapy” (THE WELLCOME FOUNDATION LIMITED, priority 1989, dated 1991)
# Read-outs that look alike come from different tables or passages of the source.
# What was measured:
# Hep G2 cells [1] = assay: ara ATP formation from (3H) labelled ara-M in infected Hep G2 cells; format: cell-based, human; conditions: Hep G2 cells infected with pCR78 containing viruses, incubated with (3H) labelled compound; Figure 6
# Method: (§1) The replication-defective, full length, artificial retroviruses containing the AFP/VZV TK chimaera were used to infect a human hepatoma cell line called Hep G2 (ATCC KS 8065). Following infection and selection on 1mg geneticin/ml (Trade mark), the cells were assayed for VZV TK activity. In addition, the cells were incubated in the presence of (^3H) labeled 9-(B-D-arabinofuranosyl)-6-methoxy-9H purine (designated as ara-M in the following tables and figures) with subsequent measurement of ara ATP. Finally, cells were cultured in the presence of the above mentioned compound and the IC50 - (growth inhibition) was determined. Cells infected with no virus or N2 virus act as control samples for these experiments. N2 virus contain no VZV TK genetic material.
# 9-(B-D-arabinofuranosyl)-6-methoxy-9H purine (designated as ara-m) can be selectively monophosphorylated by VZV TK with subsequent anabolism to cytotoxic ara ATP.
# Hep G2 cells [2] = assay: Growth inhibition of Hep G2 cells (cell number and DNA content, 5 days); format: cell-based; conditions: Homo sapiens, read-out: IC50 (50% growth inhibition)
# Method: as §1
# Hep G2 cells infected with the replication-defective, full length, artificial retroviruses containing the AFP/VZV TK (pCR78) chimaera were incubated in the presence of varying amounts of 9-(B-D-arabinofuranosyl)-6-methoxy-9H purine for 5 days and growth inhibition determined as measured by cell number and DNA content.
smiles,measurement,setting,value
COc1ncnc2c1ncn2[C@@H]1O[C@H](CO)[C@@H](O)[C@@H]1O [9-(β-D-arabinofuranosyl)-6-methoxy-9H-purine],(3H) araATP formation,Hep G2 cells [1],significant amounts
same,IC50,"Hep G2 cells [2]; HepG2, 120 h, Hep G2 cells infected with AFP/VZV TK (pCR78) retrovirus, 5 days",175 µM
same,IC50,"Hep G2 cells [2]; HepG2, 120 h, Hep G2 cells infected with N2 virus (no VZV TK), 5 days",> 2000 µM
same,IC50,"Hep G2 cells [2]; HepG2, 120 h, control Hep G2 cells, no virus, 5 days",> 2000 µM
same,IC50,"Hep G2 cells [2]; HepG2, single cell clones of Hep G2 cells containing the AFP/VZV TK (pCR78) chimaera",~40 µM
